Reference: ChEMBL document CHEMBL4130368, “Thienopyrimidine derivatives exert their anticancer efficacy via apoptosis induction, oxidative stress and mitotic catastrophe” (Eur J Med Chem, 2017)
Activity calls are given as the source filed them. The calls are words filed in the database; no cut-off is given here.

Key:
[1] = test system: A2780; test: Cell cycle arrest in human A2780 cells assessed as accumulation at subG1 phase at 1 uM measured after overnight incubation by propidium iodide staining-based flow cytometry (reference value: 8.88%); assay type: functional
[2] = test system: A2780; test: Cell cycle arrest in human A2780 cells assessed as accumulation at subG1 phase at 2 uM measured after overnight incubation by propidium iodide staining-based flow cytometry (reference value: 8.88%); assay type: functional
[3] = test system: A2780; test: Cell cycle arrest in human A2780 cells assessed as accumulation at G1 phase at 2 uM measured after overnight incubation by propidium iodide staining-based flow cytometry (reference value: 51.1%); assay type: functional
[4] = test system: HCT-116; test: Induction of apoptosis in human HCT116 cells assessed as late apoptotic cells at 1 uM measured after overnight incubation by mitotracker red/alexa fluor-488 Annexin V staining-based flow cytometry (reference value: 0%); assay type: functional
[5] = test system: 2008; test: Cell cycle arrest in human OV2008 cells assessed as accumulation at G2 phase at 1 uM measured after overnight incubation by propidium iodide staining-based flow cytometry (reference value: 26.9%); assay type: functional
[6] = test system: A2780; test: Induction of apoptosis in human A2780 cells assessed as necrotic cells at 1 uM measured after overnight incubation by mitotracker red/alexa fluor-488 Annexin V staining-based flow cytometry (reference value: 9.94%); assay type: functional
[7] = test system: A2780; test: Induction of apoptosis in human A2780 cells assessed as necrotic cells at 2 uM measured after overnight incubation by mitotracker red/alexa fluor-488 Annexin V staining-based flow cytometry (reference value: 9.94%); assay type: functional
[8] = test system: HCT-116; test: Induction of mitotic catastrophe in human HCT116 cells assessed as formation of large with flattened cells at 0.5 to 2 uM measured after overnight incubation by DAPI-staining based microscopy; assay type: functional, cell-based
[9] = test system: 2008; test: Induction of apoptosis in human OV2008 cells assessed as necrotic cells at 2 uM measured after overnight incubation by mitotracker red/alexa fluor-488 Annexin V staining-based flow cytometry (reference value: 6.31%); assay type: functional
[10] = test system: A2780; test: Cell cycle arrest in human A2780 cells assessed as accumulation at S phase at 2 uM measured after overnight incubation by propidium iodide staining-based flow cytometry (reference value: 15.2%); assay type: functional
[11] = test system: CHO; test: Cytotoxicity against CHO cells assessed as reduction in cell survival after 72 hrs by MTT assay; assay type: ADME, cell-based; settings: Cricetulus griseus
[12] = test system: 2008; test: Cell cycle arrest in human OV2008 cells assessed as accumulation at S phase at 1 uM measured after overnight incubation by propidium iodide staining-based flow cytometry (reference value: 10.8%); assay type: functional
[13] = Selectivity index, ratio of IC50 for CHO cells to IC50 for human HCT15 cells; assay type: toxicity; settings: Chinese hamster (CHO cells), CHO cells versus HCT15 cells, read-out: Ratio IC50
[14] = test system: 2008; test: Induction of mitotic catastrophe in human OV2008 cells assessed as formation of de-condensed multiple micronuclei at 0.5 to 2 uM measured after overnight incubation by DAPI-staining based microscopy; assay type: functional, cell-based
[15] = test system: HCT-116; test: Induction of apoptosis in human HCT116 cells assessed as late apoptotic cells at 2 uM measured after overnight incubation by mitotracker red/alexa fluor-488 Annexin V staining-based flow cytometry (reference value: 0%); assay type: functional
[16] = test system: A2780; test: Induction of apoptosis in human A2780 cells assessed as viable cells at 1 uM measured after overnight incubation by mitotracker red/alexa fluor-488 Annexin V staining-based flow cytometry (reference value: 78.1%); assay type: functional; settings: read-out: Activity
[17] = test system: HCT-116; test: Induction of apoptosis in human HCT116 cells assessed as early apoptotic cells at 2 uM measured after overnight incubation by mitotracker red/alexa fluor-488 Annexin V staining-based flow cytometry (reference value: 8.36%); assay type: functional
[18] = test system: HCT-116; test: Induction of apoptosis in human HCT116 cells assessed as necrotic cells at 2 uM measured after overnight incubation by mitotracker red/alexa fluor-488 Annexin V staining-based flow cytometry (reference value: 2.67%); assay type: functional
[19] = test system: HCT-116; test: Cell cycle arrest in human HCT116 cells assessed as accumulation at G2 phase at 2 uM measured after overnight incubation by propidium iodide staining-based flow cytometry (reference value: 24%); assay type: functional
[20] = test system: HCT-116; test: Cell cycle arrest in human HCT116 cells assessed as accumulation at […] at 2 uM measured after overnight incubation by propidium iodide staining-based flow cytometry (reference value: 9.70%); assay type: functional
[21] = test system: HCT-116; test: Antiproliferative activity against dko deficient human HCT116 cells after 72 hrs by MTT assay; assay type: functional, cell-based; settings: HCT-116, 72 h
[22] = test system: A2780; test: Induction of apoptosis in human A2780 cells assessed as viable cells at 2 uM measured after overnight incubation by mitotracker red/alexa fluor-488 Annexin V staining-based flow cytometry (reference value: 78.1%); assay type: functional; settings: read-out: Activity
[23] = test system: 2008; test: Cell cycle arrest in human OV2008 cells assessed as accumulation at subG1 phase at 1 uM measured after overnight incubation by propidium iodide staining-based flow cytometry (reference value: 2.64%); assay type: functional
[24] = test system: HCT-116; test: Antiproliferative activity against human HCT116 cells after 72 hrs by MTT assay; assay type: functional, cell-based; settings: HCT-116, 72 h
[25] = test system: HCT-116; test: Induction of apoptosis in human HCT116 cells assessed as viable cells at 2 uM measured after overnight incubation by mitotracker red/alexa fluor-488 Annexin V staining-based flow cytometry (reference value: 89%); assay type: functional; settings: read-out: Activity
[26] = test system: 2008; test: Cell cycle arrest in human OV2008 cells assessed as accumulation at S phase at 2 uM measured after overnight incubation by propidium iodide staining-based flow cytometry (reference value: 10.8%); assay type: functional
[27] = test system: HCT-116; test: Induction of morphological changes in human HCT116 cells at 0.1 to 3 uM after 68 hrs by microscopic method; assay type: functional, cell-based
[28] = test system: A2780; test: Cell cycle arrest in human A2780 cells assessed as accumulation at S phase at 1 uM measured after overnight incubation by propidium iodide staining-based flow cytometry (reference value: 15.2%); assay type: functional
[29] = test system: HCT-116; test: Induction of apoptosis in human HCT116 cells assessed as cell shrinkage at 0.5 to 2 uM measured after overnight incubation by DAPI-staining based microscopy; assay type: functional
[30] = test system: 2008; test: Induction of apoptosis in human OV2008 cells assessed as late apoptotic cells at 2 uM measured after overnight incubation by mitotracker red/alexa fluor-488 Annexin V staining-based flow cytometry (reference value: 0.255%); assay type: functional
[31] = test system: 2008; test: Induction of mitotic catastrophe in human OV2008 cells assessed as formation of large with flattened cells at 0.5 to 2 uM measured after overnight incubation by DAPI-staining based microscopy; assay type: functional, cell-based
[32] = test system: 2008; test: Induction of apoptosis in human OV2008 cells assessed as viable cells at 2 uM measured after overnight incubation by mitotracker red/alexa fluor-488 Annexin V staining-based flow cytometry (reference value: 80.5%); assay type: functional; settings: read-out: Activity
[33] = test system: A2780; test: Cell cycle arrest in human A2780 cells assessed as accumulation at G1 phase at 1 uM measured after overnight incubation by propidium iodide staining-based flow cytometry (reference value: 51.1%); assay type: functional
[34] = test system: A2780; test: Induction of apoptosis in human A2780 cells assessed as late apoptotic cells at 1 uM measured after overnight incubation by mitotracker red/alexa fluor-488 Annexin V staining-based flow cytometry (reference value: 0.015%); assay type: functional
[35] = test system: LN-229; test: Antiproliferative activity against human LN229 cells after 72 hrs by MTT assay; assay type: functional, cell-based; settings: LN-229, 72 h
[36] = test system: HCT-15; test: Antiproliferative activity against human HCT15 cells after 72 hrs by MTT assay; assay type: functional, cell-based; settings: HCT-15, 72 h

## COc1ccc(-c2nc(O)c3c4c(sc3n2)CCCC4)cc1
[1]
  Activity: 7.99%
[2]
  Activity: 7.54%
[3]
  Activity: 15.5%
[4]
  Activity: 0%
[5]
  Activity: 44.6%
[6]
  Activity: 0.421%
[7]
  Activity: 5.77%
[8]
  Activity: Active
[9]
  Activity: 3.79%
[10]
  Activity: 9.02%
[11]
  IC50: 14000 nM
[12]
  Activity: 20.4%
[13]
  selectivity ratio: 17 to 28
[14]
  Activity: Active
[15]
  Activity: 0%
[16]
  viability at 1 µM: 73.8%
[17]
  Activity: 25.9%
[18]
  Activity: 3.04%
[19]
  Activity: 54.8%
[20]
  Activity: 10.6%
[21]
  IC50: 1400 nM
[22]
  viability at 2 µM: 42.9%
[23]
  Activity: 4.17%
[24]
  IC50: 600 nM
[25]
  viability at 2 µM: 71.1%
[26]
  Activity: 31.8%
[27]
  Activity: Active
[28]
  Activity: 10.4%
[29]
  Activity: Active
[30]
  Activity: 0.057%
[31]
  Activity: Active
[32]
  viability at 2 µM: 73.9%
[33]
  Activity: 20.2%
[34]
  Activity: 0%
[35]
  IC50: 500 nM
[36]
  IC50: 700 nM
